Activity calls are given as the source filed them.
Columns and labels:
Format in all cases: functional, cell-based
HepG2 [1] = test: Cytotoxicity in human HepG2 cells assessed as elevation of intracellular calcium concentration by Fluo4AM-fluorescence based high content screening assay
HepG2 [2] = test: Cytotoxicity against human HepG2 cells at 4 to 10 mM after 24 hrs by MTT assay
HepG2 [3] = test: Induction of apoptosis in human HepG2 cells assessed as morphological nuclear changes by Hoechst33342-staining based high content screening assay
HepG2 [4] = test: Cytotoxicity in human HepG2 cells assessed as alteration of mitochondrial membrane potential by TMRM-fluorescence based high content screening assay

Measured: Activity

Nc1nc(=O)[nH]cc1F
inactive: all assays above
